Values joined by “and” are separate entries in the source; they are usually repeats but may differ in a detail not shown here. Equal values may be shown once. Toxic doses and inconclusive results are not listed.
System: CD2F1 mice, L1210 leukemia ip, survival T/C
Assay: NCI In Vivo Anticancer Drug Screen. Data for tumor model L1210 Leukemia (intraperitoneal) in CD2F1 (CDF1) mice
Conditions: endpoint: mean survival time, higher = longer survival
Outline: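 Tumor-bearing mice (transplanted tumor) were split into treated and vehicle control groups, and the measured endpoint of each treated group was divided by that of its vehicle controls.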

[1] = dose: 100.0 mg/kg/injection, schedule: Q01DX009 (ip), vehicle: saline sonified
[2] = dose: 100.0 mg/kg/injection, schedule: Q04DX003 (ip), vehicle: saline
[3] = dose: 200.0 mg/kg/injection, schedule: Q01DX009 (ip), vehicle: saline sonified
[4] = dose: 200.0 mg/kg/injection, schedule: Q04DX003 (ip), vehicle: saline
[5] = dose: 400.0 mg/kg/injection, schedule: Q04DX003 (ip), vehicle: saline

In the case of `O=C(O)C(O)C(O)C(=O)O.[NH-]C1CCCCCC1[NH-].[Pt+2]` (stereo not given), the T/C (dose: 2.5 mg/kg/injection, schedule: Q04DX003 (ip), vehicle: dextrose) is reported as 123 % of control, the T/C (dose: 5.0 mg/kg/injection, schedule: Q04DX003 (ip), vehicle: dextrose) is reported as 153 % of control and the T/C (dose: 20.0 mg/kg/injection, schedule: Q04DX003 (ip), vehicle: dextrose) is reported as 152 % of control and 273 % of control.
In the case of `COCCOCCOCCOCCOCCOCCOCCOC(=O)Nc1ccc(C)c(NC(=O)OCCOCCOCCOCCOCCOCCOCCOC)c1`, the T/C [1] is reported as 96 % of control, the T/C [2] is reported as 96 % of control and the T/C [3] is reported as 96 % of control. For the same molecule, the T/C [4] was 100 % of control, the T/C (dose: 400.0 mg/kg/injection, schedule: Q01DX009 (ip), vehicle: saline sonified) was 93 % of control and the T/C [5] was 100 % of control.
With `Clc1nnc(-c2ccccc2)c(-c2ccccc2)n1` the T/C [2] was 91 % of control.
`CCOC(=O)CC(O)c1ccccc1` (stereo not given) was tested, and the T/C (dose: 50.0 mg/kg/injection, schedule: Q01DX009 (ip), vehicle: saline with Tween-80) was 102 % of control, the T/C (dose: 100.0 mg/kg/injection, schedule: Q01DX009 (ip), vehicle: saline with Tween-80) was 102 % of control and the T/C (dose: 200.0 mg/kg/injection, schedule: Q01DX009 (ip), vehicle: saline with Tween-80) was 98 % of control.
`CC(CNC1CCCCC1)OC(=O)c1ccc(N)cc1` (stereo not given) was tested, and the T/C (dose: 75.0 mg/kg/injection, schedule: Q01DX001 (ip), vehicle: saline) was 102 % of control.
In the case of `CC(C)N1CCSC1=S`, the T/C (dose: 25.0 mg/kg/injection, schedule: Q01DX009 (ip), vehicle: saline sonified) is reported as 101 % of control, the T/C (dose: 50.0 mg/kg/injection, schedule: Q01DX009 (ip), vehicle: saline sonified) is reported as 98 % of control and the T/C [1] is reported as 106 % of control. For the same molecule, the T/C (dose: 100.0 mg/kg/injection, schedule: Q04DX003 (ip), vehicle: saline with Tween-80) was 100 % of control, the T/C [3] was 88 % of control and the T/C (dose: 200.0 mg/kg/injection, schedule: Q04DX003 (ip), vehicle: saline with Tween-80) was 99 % of control. The T/C (dose: 400.0 mg/kg/injection, schedule: Q04DX003 (ip), vehicle: saline with Tween-80) was 97 % of control.
For `O=C(O)C1CCCC(C(=O)O)[N-]1.O=C(O)C1CCCC(C(=O)O)[N-]1.[Cr+2]` (stereo not given), the T/C [2] was 104 % of control, the T/C [4] was 101 % of control and the T/C [5] was 104 % of control.
For `[O-][n+]1ccnc2c1cnn2C1OC(CO)C(O)C1O` (stereo not given), the T/C (dose: 12.5 mg/kg/injection, schedule: Q04DX003 (ip), vehicle: water) was 104 % of control, the T/C (dose: 25.0 mg/kg/injection, schedule: Q04DX003 (ip), vehicle: water) was 104 % of control and the T/C (dose: 50.0 mg/kg/injection, schedule: Q04DX003 (ip), vehicle: water) was 101 % of control. The T/C (dose: 100.0 mg/kg/injection, schedule: Q04DX003 (ip), vehicle: water) was 101 % of control and the T/C (dose: 200.0 mg/kg/injection, schedule: Q04DX003 (ip), vehicle: water) was 101 % of control.
In the case of `C[C@]12CC[C@@H]3c4ccc(O)cc4CC[C@H]3[C@@H]1CC[C@@H]2O`, the T/C (dose: 6.25 mg/kg/injection, schedule: Q01DX009 (ip), vehicle: Klucel (hydroxypropylcellulose) (HPC)) is reported as 94 % of control, the T/C (dose: 12.5 mg/kg/injection, schedule: Q01DX009 (ip), vehicle: Klucel (hydroxypropylcellulose) (HPC)) is reported as 100 % of control and the T/C (dose: 25.0 mg/kg/injection, schedule: Q01DX009 (ip), vehicle: Klucel (hydroxypropylcellulose) (HPC)) is reported as 97 % of control. The T/C (dose: 50.0 mg/kg/injection, schedule: Q01DX009 (ip), vehicle: Klucel (hydroxypropylcellulose) (HPC)) was 96 % of control, the T/C (dose: 100.0 mg/kg/injection, schedule: Q01DX009 (ip), vehicle: Klucel (hydroxypropylcellulose) (HPC)) was 105 % of control and the T/C (dose: 200.0 mg/kg/injection, schedule: Q01DX009 (ip), vehicle: Klucel (hydroxypropylcellulose) (HPC)) was 96 % of control.

— PubChem BioAssay AID256 (DTP/NCI, 2004)
